Data published in ChEMBL document CHEMBL3576762, “Ribifolin, an orbitide from Jatropha ribifolia, and its potential antimalarial activity” (J Nat Prod, 2015).
Where a SMILES comes first, the peptide text is derived from it.

What was measured:
Plasmodium falciparum = test: Antimalarial activity against chloroquine-sensitive Plasmodium falciparum 3D7 infected in erythrocytes by Giemsa-stained blood smears under microscopy; type: functional, organism-based
HEK-293T = test: Cytotoxicity against human HEK293T cells at 0.001 to 100 uM after 48 hrs by MTT assay; type: cell-based

Row | Molecule | IC50 (Plasmodium falciparum) | Activity (HEK-293T)
1 | CC[C@H](C)[C@@H]1NC(=O)[C@H](C)NC(=O)[C@H](CC(C)C)NC(=O)[C@H]([C@@H](C)CC)NC(=O)[C@@H]2CCCN2C(=O)[C@H]([C@@H](C)CC)NC(=O)CNC(=O)[C@H](CCSC)NC1=O (cyclo(AIMGIPIL)) | 9 µM | 
2 | CC[C@H](C)[C@@H]1NC(=O)CNC(=O)[C@H](CC(C)C)NC(=O)[C@H](CC(C)C)NC(=O)[C@H]([C@@H](C)CC)NC(=O)[C@@H]2CCCN2C(=O)[C@H](CO)NC(=O)CNC(=O)[C@H](CC(C)C)NC1=O (cyclo(GILGSPILL)) | 10000 µM | 
3 | CC[C@H](C)[C@@H]1NC(=O)[C@H]([C@@H](C)O)NC(=O)CNC(=O)[C@H](Cc2ccccc2)NC(=O)[C@H](C(C)C)NC(=O)CNC(=O)[C@H](CC(C)C)NC1=O (cyclo(FGTILGV)) | 16 µM | 
4 | CC[C@H](C)[C@@H]1NC(=O)CNC(=O)[C@H](CC(C)C)NC(=O)[C@H]([C@@H](C)CC)NC(=O)[C@H]([C@@H](C)CC)NC(=O)[C@H](CO)NC(=O)CNC(=O)[C@H](CC(C)C)NC1=O (cyclo(GILGSIIL)) | 42 µM | Non-toxic

More lines, in order of falling IC50 (Plasmodium falciparum), values ahead:

Row | IC50 (Plasmodium falciparum) | Molecule | Activity (HEK-293T)
5 | 519 µM | H-ILGSIILG-OH | Non-toxic
6 | 2 µM | C[C@@H](O)[C@@H]1NC(=O)CNC(=O)[C@H](Cc2ccccc2)NC(=O)[C@H](Cc2ccccc2)NC(=O)CNC(=O)[C@H](Cc2ccccc2)NC(=O)[C@H](Cc2ccccc2)NC1=O (cyclo(FFGFFGT)) | 
